US4080467A, “Pharmaceutical compositions comprising 1,3-dithiolan-2-ylidene malonate derivatives” (Nihon Nohyaku Co., Ltd., priority 1976, dated 1978)

Assays:
[1] = test system: Acute Liver Damage associated with Centrilobular Necrosis (carbon tetrachloride); assay: Protective effect on acute liver damage associated with centrilobular necrosis (carbon tetrachloride model); assay type: in vivo, mice (four-week-old male, dd strain); settings: 250 mg/kg oral 6 h before CCl4, average of 5 to 6 mice
Excerpt: Carbon tetrachloride (CCl4) administration induces centrilobular necrosis of the liver associated with loss of diphosphopyridine nucleotide, hepatic glycogen, coenzyme A and increase in neutral fat. Release of several enzymes from the hepatocytes, and increases of enzyme activities in the plasma are recognized as the result of the damage of the liver. A suitable means for evaluating the degree of damage induced by CCl4 or the degree of protection afforded by drugs is to study the plasma glutamic-pyruvic transaminase (p-GPT) activity.
Method: The test compounds were dissolved or suspended in olive oil and administered orally at the dose of 250 mg/kg to the mice (Four-week-old male mice-dd strain). After 6 hours, CCl4 was administered orally (0.05 ml/kg as olive oil solution). Animals were killed 24 hours after CCl4 administration, and the liver was grossly observed. The plasma was obtained by centrifugation. Activities of p-GPT were determined by the method of Reitman and Frankel and expressed in Karmen units.
Score for liver damage was as follows: […]
4 Clearly observable damage
Each figure indicates average of 5 to 6 mice. Values of p-GPT over 1,000 Karmen unit regarded as 1,000 for calculation of average for convenience.

[2] = test system: Chronic Liver Damage (thioacetamide); assay: Therapeutic effect on chronic liver damage (thioacetamide model), BSP test; assay type: in vivo, rats (Sprague Dawley strain); settings: 12 times TAA 100 mg/kg, then diet + 0.2% compound
Description: In the tests of this Example, TAA was repeatedly administered to animals to prepare test animals suffering from somewhat chronic liver damages, and then the present compounds were administered thereto to know whether or not the compounds were effective against chronic hepatitis.
The degree of the liver damage and the therapeutic effects of the compounds were evaluated according to BSP test. The BSP test is a method in which BSP (sulfobromophthalein sodium), a dye known to be quickly metabolized in and excreted from the liver, is intravenously injected into animals and, after a definite period of time, the blood is taken out to measure the amount of BSP remaining in the plasma. In case the animals are suffering from the liver damage, the dye will remain, according to the degree of the damage, at the stage where a major portion of BSP is metabolized and excreted in the case of normal animals.
Five groups of rats (Sprague Dawley strain) were treated as follows:
Group A: The rats were orally administered with 100 mg/kg of thioacetamide,at 3 days intervals for 36 days (12 times of the administration), then were submitted for 10 days to a normal diet.
Group B: The rats were orally administered with 100 mg/kg of thioacetamide at 3 days intervals for 36 days (12 times of the administration), then were submitted for 10 days to the normal diet + 0.2% of compound 4.
Group C: The rats were orally administered with 100 mg/kg of thioacetamide at 3 days intervals for 36 days (12 times of the administration) then were submitted for 10 days to the normal diet + 0.2% of compound 2.
Group D: The rats were orally administered with 100 mg/kg of thioacetamide at 3 days intervals for 36 days (12 times of the administration) then were submitted for 10 days to the normal diet + 0.2% of anethol trithion.
Group E: The rats were submitted to the normal diet as the control.
Five rats were sacrified from each group at appropriate intervals for BSP (sulfobromophthalein) test, the results of which were shown as amounts (mg) of BSP remaining in 1 dl of plasma.

[3] = test system: acute liver damage associated with discrete lobular necrosis (D-galactosamine); assay: Protective effect on acute hepatitis with mesenchymal reaction and discrete lobular necrosis (D-galactosamine model); assay type: in vivo, male rat (SD strain); settings: 100 mg/kg oral 6 h before D-galactosamine
Description: D-Galactosamine is a compound which induces a discrete lobular necrosis associated with mesenchymal reaction similar to the change observed in human viral hepatitis, so that it is frequently used in producing a model for viral hepatitis.
The compound of this invention or anethol trithion was administered orally to the male rat (SD strain) at the dose of 100 mg/kg. Six hours after it, D-galacetosamine was intraperitoneally administered at the dose of 600 mg/kg. Four hours after it, an additional 300 mg/kg was administered intraperitoneally. Eight hours after it, the animals were sacrificed to collect the blood samples. P-GPT activity and triglyceride in the liver were measured to evaluate the effect of the compound of this invention.

[4] = test system: bile flow and biliary salt; assay: Cholagogic action: bile flow and excretion of biliary salt; assay type: in vivo, male rat (4 week-aged, SD-JCL strain); settings: 200 mg/kg oral; for bile flow / excretion of biliary salt: before treatment = 100
Description: The male rat (4 week-aged, SD-JCL strain) was anesthetized with sodium pentobarbital (37.5 mg/kg, intraperitoneal injection). The abdominal cavity was opened through a midline incision. The common bile duct was catheterized with polyethylene tube o.d. 0.8 mm. The catheter was brought to the outside through the abdominal incision wound prior to closing. Bile was collected from the catheter continuously with time intervals of one hour. The quantity of bile produced in one hour was determined by weighing and that of biliary salt was determined by enzymatic method (Ikagaku Jikkenho Koza 1B, Biological Constituents II, edited by Tamio YAMAKAWA). The amount of biliary salts was represented as cholic acid equivalent.
In the representation of the results, the quantities of bile and biliary salts produced in one hour prior to the administration of drug were taken as 100. The compound of this invention was orally administered at the dose of 200 mg/kg. As reference anethol trithion was used.

[5] = test system: acute liver damage associated with periportal necrosis (allyl alcohol); assay: Protective effect on acute liver damage associated with periportal necrosis (allyl alcohol model), BSP test; assay type: in vivo, male mouse (4 week-old dd-strain); settings: 100 mg/kg oral 6 h before allyl alcohol 0.075 ml/kg; 24 h after
Description: The compound of this invention or anethol trithion was orally administered to the male mouse (4 week-old dd-strain) at the dose of 100 mg/kg. Six hours after it, allyl alcohol was orally administered at the dose of 0.075 ml/kg. Twenty four hours after it, the animals were sacrificed to collect blood samples. The residual quantity of BSP was measured by BSP test, from which the protective effect of the compound of this invention was evaluated.

For `COc1ccc(-c2cc(=S)ss2)cc1` [Anethol trithion, anethol trithion, reference compound], the “p-GPT (plasma glutamic-pyruvic transaminase activity)” value ([1]; 24 h after CCl4, values over 1,000 regarded as 1,000) was 38 Karmen units, the “Liver Damage Index” value ([1]; 0 normal, 2 slightly recognized, 4 clearly observable damage, 6 heavy damage) was 1.6 and the “Concentration of BSP in plasma” value ([2]; 2 Days) was 9.7 ± 4.1 mg/dL. The “Concentration of BSP in plasma” value ([2]; 5 Days) was 7.3 ± 3.4 mg/dL, the “Concentration of BSP in plasma” value ([2]; 10 Days) was 0.9 ± 0.1 mg/dL and the Triglyceride in liver [3] was 9.2 ± 1.5 mg/g. For the same compound, the p-GPT [3] was 106±30 Karmen unit, the bile flow ([4]; 1 hour after treatment) was 114±15 and the “excretion of biliary salt” value ([4]; 1 hour after treatment) was 108±12. For the same compound, the bile flow ([4]; 2 hours after treatment) was 114±15, the “excretion of biliary salt” value ([4]; 2 hours after treatment) was 89±11 and the bile flow ([4]; 3 hours after treatment) was 102±11. The “excretion of biliary salt” value ([4]; 3 hours after treatment) was 66±3.8, the bile flow ([4]; 4 hours after treatment) was 95±7.7 and the “excretion of biliary salt” value ([4]; 4 hours after treatment) was 47±3.0. The bile flow ([4]; 5 hours after treatment) was 86±6.6, the “excretion of biliary salt” value ([4]; 5 hours after treatment) was 3.3±4.0 and the “Quantity of total excreted bile for 5 hours relative to control” value ([4]; versus control) was 1.10 times. The “Index of hepatotoxicity: BSP (residual quantity of BSP)” value [5] was 19.3±4.6.
